From patent US9304125B2, “Devices and methods for observing the cell division” (CENTRE NATIONAL DE LA RECHERCHE SCIENTIFIQUE, priority 2009, dated 2016)
Entries after “also recorded” stand apart in the source; their conditions may differ.

Tested on: cytokinetic ring
Experiment: Cytokinetic ring closure of fission yeast in egg-cup wells, observed by fluorescence microscopy (rlc1-mCherry)
Type: cell-based, Schizosaccharomyces pombe
Conditions: latrunculin A 2 μM; FIG. 5B
Protocol: Here, they illustrate results with the myosin light chain encoded by rcl1 gene fused to mCherry.
The inventors incubated the cells with latrunculin A (2 μM), a drug known to bind monomeric actin and therefore preventing its polymerisation (Ayscough, 1998).
Standard methods were used for cell growth (Moreno et al., 1991). Briefly, cells were growing exponentially in EMM4S (Moreno et al., 1991), and experiments were conducted using the same medium in the chamber.
S. pombe strains successfully used in this study were the following: • JM 207 h+ rlc1 mcherry::natR ura- leu- ade-, J. Moseley • JW 1110 h+ kanMX6-Pmyo2-mYFP-myo2 ade6-M210 leu1-32 ura4-D18, J.-Q. Wu (Wu and Pollard, 2005) • PPG 5054, h+ leu1-32 ura4-D18 pax::KanMX6 leu1+::GFPpax+, Pilar Perez Lab (Pinar et al., 2008). • JW 977 h+ cdc15-mYFP-kanMX6 ade6-M210 leu1-32 ura4-D18, J.-Q. Wu (Wu and Pollard, 2005) • 519 h− bgs1Δ::ura4^+ Pbgs1^+::GFP-bgs1^+:leu1^+ leu1-32 ura4-Δ18 his3-Δ1, Pilar Perez (Cortes et al., 2002)
Cells were grown in exponential phase at 32° C. At about 0.5 optical density, the EMM4S medium was removed twice by centrifugation at 1000 g for 2 min followed by cells resuspension in a EMM-N medium (Moreno et al., 1991): cells were nitrogen starved at 32° C. for 5 hours. Cells were then pelleted with a 2 min centrifugation at 1000 g and they were resuspended in EMM4S. The egg cup surface (face up) was carefully placed on the top of a home-made plastic holder deposited in a 50 ml tube (adapted from the set-up used by (Allen et al., 2007)); 13 ml of EMM4S was poured in the tube. Cells were exposed to sonication 30 s (Branson 200, Ultrasonic Cleaner) to separate aggregated cells, and 1 ml of cell suspension was added to the 50 ml tube. Cells were then centrifuged at 500 g for 2 mn on the egg-cup surface resting on the special plastic holder. The egg cup surface was carefully removed from the holder and it was inserted in a home-made chamber (see FIG. 2D). The sample preparation was achieved by screwing a top metal piece onto the surface holder. […]

C/C1=C/C(=O)O[C@@H]2C[C@@H](CC[C@H](C)/C=C\C=C\CC1)O[C@@](O)([C@@H]1CSC(=O)N1)C2 [latrunculin A]
closure of the cytokinetic ring: the closure was stopped | cytokinetic ring integrity: the ring disassembled, and this led to the clustering of myosin into discrete patches; also recorded: disrupts the ring
